According to the supplement of paper PMC10307832:

Experiments:
Experiment in all cases: relative viability (nuclei count vs DMSO), 5 days (fraction); higher = more cells survive
Etoposide + OSI-027 = compound: COc1cc([C@@H]2c3cc4c(cc3[C@@H](O[C@@H]3O[C@@H]5CO[C@@H](C)O[C@H]5[C@H](O)[C@H]3O)[C@H]3COC(=O)[C@H]23)OCO4)cc(OC)c1O [Etoposide] + COc1cccc2cc(-c3nc([C@H]4CC[C@H](C(=O)O)CC4)n4ncnc(N)c34)[nH]c12 [OSI-027] (partner 0.5 µM)
Procedure, shortened: (§1)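 Dosing by pin tool came one day after lung cancer cell lines were seeded in 1536-well plates, using either one drug or a fixed anchor-drug dose plus five library-drug doses (not always all listed) in √10 steps. After 5 days, nuclei were counted on 4× images. Relative viability is treated-well nuclei count divided by vehicle-well nuclei count, and values are medians of duplicate plates.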

Etoposide + Linsitinib = compound: COc1cc([C@@H]2c3cc4c(cc3[C@@H](O[C@@H]3O[C@@H]5CO[C@@H](C)O[C@H]5[C@H](O)[C@H]3O)[C@H]3COC(=O)[C@H]23)OCO4)cc(OC)c1O [Etoposide] + C[C@]1(O)C[C@@H](c2nc(-c3ccc4ccc(-c5ccccc5)nc4c3)c3c(N)nccn32)C1 [Linsitinib] (partner 1 µM)
Procedure, shortened: as §1

Etoposide + Alpelisib = compound: COc1cc([C@@H]2c3cc4c(cc3[C@@H](O[C@@H]3O[C@@H]5CO[C@@H](C)O[C@H]5[C@H](O)[C@H]3O)[C@H]3COC(=O)[C@H]23)OCO4)cc(OC)c1O [Etoposide] + Cc1nc(NC(=O)N2CCC[C@H]2C(N)=O)sc1-c1ccnc(C(C)(C)C(F)(F)F)c1 [Alpelisib] (partner 2 µM)
Procedure, shortened: as §1

Etoposide + Vorinostat = compound: COc1cc([C@@H]2c3cc4c(cc3[C@@H](O[C@@H]3O[C@@H]5CO[C@@H](C)O[C@H]5[C@H](O)[C@H]3O)[C@H]3COC(=O)[C@H]23)OCO4)cc(OC)c1O [Etoposide] + O=C(CCCCCCC(=O)Nc1ccccc1)NO [Vorinostat] (partner 1 µM)
Procedure, shortened: as §1

Cell Line | relative viability (Etoposide + OSI-027; first compound 0.01 µM) | relative viability (Etoposide + OSI-027; first compound 0.03162 µM) | relative viability (Etoposide + OSI-027; first compound 0.1 µM) | relative viability (Etoposide + OSI-027; first compound 0.3162 µM) | relative viability (Etoposide + OSI-027; first compound 1 µM) | relative viability (Etoposide + Linsitinib; first compound 0.01 µM) | relative viability (Etoposide + Linsitinib; first compound 0.03162 µM) | relative viability (Etoposide + Linsitinib; first compound 0.1 µM) | relative viability (Etoposide + Linsitinib; first compound 0.3162 µM) | relative viability (Etoposide + Linsitinib; first compound 1 µM) | relative viability (Etoposide + Alpelisib; first compound 0.01 µM) | relative viability (Etoposide + Alpelisib; first compound 0.03162 µM) | relative viability (Etoposide + Alpelisib; first compound 0.1 µM) | relative viability (Etoposide + Alpelisib; first compound 0.3162 µM) | relative viability (Etoposide + Alpelisib; first compound 1 µM) | relative viability (Etoposide + Vorinostat; first compound 0.01 µM) | relative viability (Etoposide + Vorinostat; first compound 0.03162 µM) | relative viability (Etoposide + Vorinostat; first compound 0.1 µM) | relative viability (Etoposide + Vorinostat; first compound 0.3162 µM) | relative viability (Etoposide + Vorinostat; first compound 1 µM)
NCI-H1755 | 0.69 | 0.659 | 0.609 | 0.641 | 0.585 | 0.985 | 1.03 | 0.974 | 0.951 | 0.858 | 0.919 | 0.907 | 0.888 | 0.871 | 0.639 | 0.748 | 0.896 | 0.694 | 0.743 | 0.474
HCC-78 | 0.387 | 0.392 | 0.345 | 0.376 | 0.281 | 0.436 | 0.525 | 0.255 | 0.322 | 0.181 | 0.316 | 0.354 | 0.212 | 0.213 | 0.161 | 0.396 | 0.494 | 0.329 | 0.256 | 0.242
LOU-NH91 | 0.723 | 0.794 | 0.493 | 0.71 | 0.612 | 0.892 | 0.943 | 0.702 | 0.728 | 0.538 | 0.7 | 0.744 | 0.593 | 0.62 | 0.469 | 0.88 | 0.982 | 0.831 | 0.659 | 0.387
NCI-H322M | 0.565 | 0.607 | 0.509 | 0.468 | 0.389 | 0.902 | 0.993 | 0.727 | 0.845 | 0.565 | 0.712 | 0.786 | 0.663 | 0.658 | 0.472 | 0.863 | 0.962 | 0.73 | 0.728 | 0.611
HCC-827 | 0.742 | 0.773 | 0.569 | 0.668 | 0.174 | 0.983 | 0.919 | 0.931 | 0.659 | 0.33 | 0.967 | 0.912 | 0.696 | 0.453 | 0.18 | 0.917 | 0.972 | 0.746 | 0.605 | 0.181
SW 1573 | 0.707 | 0.593 | 0.277 | 0.265 | 0.116 | 0.884 | 0.76 | 0.646 | 0.327 | 0.277 | 0.6 | 0.857 | 0.55 | 0.404 | 0.223 | 0.646 | 0.625 | 0.359 | 0.228 | 0.142
NCI-H1975 | 0.733 | 0.975 | 0.594 | 0.748 | 0.27 | 0.973 | 1.07 | 0.902 | 0.67 | 0.345 | 0.621 | 0.822 | 0.693 | 0.56 | 0.273 | 0.726 | 0.728 | 0.739 | 0.476 | 0.328
NCI-H1651 | 0.591 | 0.641 | 0.438 | 0.44 | 0.155 | 0.885 | 0.922 | 0.864 | 0.331 | 0.134 | 0.844 | 0.833 | 0.984 | 0.511 | 0.24 | 0.602 | 0.65 | 0.399 | 0.387 | 0.189
NCI-H460 | 0.601 | 0.731 | 0.415 | 0.0887 | 0.0402 | 0.684 | 0.601 | 0.447 | 0.0349 | 0.0212 | 0.479 | 0.355 | 0.272 | 0.0559 | 0.0284 | 0.688 | 0.261 | 0.286 | 0.0502 | 0.0457
LCLC-103H | 0.515 | 0.516 | 0.392 | 0.55 | 0.424 | 0.998 | 1.12 | 0.93 | 1.02 | 0.902 | 1.02 | 1.12 | 0.774 | 0.973 | 0.703 | 0.745 | 0.94 | 0.663 | 0.672 | 0.575
LCLC-97TM1 | 0.532 | 0.517 | 0.403 | 0.423 | 0.116 |  | 0.193 | 0.122 | 0.151 | 0.1 |  | 0.309 | 0.132 | 0.139 | 0.107 | 0.783 | 0.896 | 0.315 | 0.316 | 0.0855
NCI-H838 | 0.37 | 0.43 | 0.307 | 0.403 | 0.325 | 0.937 | 0.994 | 0.902 | 0.644 | 0.296 | 0.951 | 1.08 | 0.887 | 0.666 | 0.387 | 0.74 | 0.67 | 0.69 | 0.538 | 0.267
NCI-H1355 | 0.383 | 0.396 | 0.3 | 0.345 | 0.219 | 0.732 | 0.945 | 0.466 | 0.585 | 0.334 | 0.811 | 0.969 | 0.343 | 0.53 | 0.304 | 0.635 | 0.687 | 0.392 | 0.461 | 0.272
HOP-62 | 0.802 | 0.882 | 0.521 | 0.696 | 0.523 | 0.963 | 1.05 | 0.657 | 0.631 | 0.269 | 0.995 | 1.25 | 0.518 | 0.663 | 0.294 | 0.631 | 0.711 | 0.381 | 0.267 | 0.115
NCI-H2085 | 0.542 | 0.705 | 0.533 | 0.676 | 0.373 | 0.8 | 0.883 | 0.859 | 0.51 | 0.279 | 0.882 | 0.939 | 0.824 | 0.552 | 0.35 | 0.762 | 0.809 | 0.635 | 0.75 | 0.301
